Results reported in patent publication US20250353820A1, “ANTIVIRAL PYRAZOLOPYRIDINONE COMPOUNDS” (Novartis AG, priority 2019, published 2025).

Target: human HSV DNA polymerase UL30 (Human herpesvirus 1 (strain 17) (HHV-1) (Human herpes simplex virus 1), UniProt P04293)
Assay: biochemical
Conditions: 625 pM HSV polymerase, 20 minutes at room temperature; read-out: HSV-polymerase Biochemical IC50

Structure (SMILES) | IC50 [nM]
Cn1nc(C(=O)NCc2ccc(C#N)cc2)c2c1C(=O)N(CC1(S(=O)(=O)C(C)(C)COCC(C)(C)N)CC1)CC2 [Example 103, 6-((1-((1-(2-Amino-2-methylpropoxy)-2-methylpropan-2-yl)sulfonyl)cyclopropyl)methyl)-N-(4-cyanobenzyl)-1-methyl-7-oxo-4,5,6,7-tetrahydro-1H-pyrazolo[3,4-c]pyridine-3-carboxamide] | 117
CN(C)CCOCC(C)(C)S(=O)(=O)C1(CN2CCc3c(C(=O)NCc4ccc(C#N)cc4)nn(C)c3C2=O)CC1 [Example 104, N-(4-Cyanobenzyl)-6-((1-((1-(2-(dimethylamino)ethoxy)-2-methylpropan-2-yl)sulfonyl)cyclopropyl)methyl)-1-methyl-7-oxo-4,5,6,7-tetrahydro-1H-pyrazolo[3,4-c]pyridine-3-carboxamide] | 108
CNC(=O)C(C)(C)S(=O)(=O)C1(CN2CCc3c(C(=O)NCc4ccc(Cl)cc4)nn(C)c3C2=O)CC1 [Example 110, N-(4-Chlorobenzyl)-1-methyl-6-((1-((2-methyl-1-(methylamino)-1-oxopropan-2-yl)sulfonyl)cyclopropyl)methyl)-7-oxo-4,5,6,7-tetrahydro-1H-pyrazolo[3,4-c]pyridine-3-carboxamide] | 166
Cn1nc(C(=O)NCc2ccc(C#N)cc2)c2c1C(=O)N(CC1(S(=O)(=O)C3(CCO)CC3)CC1)CC2 [Example 117, N-(4-Cyanobenzyl)-6-((1-((1-(2-hydroxyethyl)cyclopropyl)sulfonyl)cyclopropyl)methyl)-1-methyl-7-oxo-4,5,6,7-tetrahydro-1H-pyrazolo[3,4-c]pyridine-3-carboxamide] | 59
Cn1nc(C(=O)NCc2ccc(C#N)cc2)c2c1C(=O)N(CC1(S(=O)(=O)CC(C)(C)O)CC1)CC2 [Example 118, N-(4-Cyanobenzyl)-6-((1-((2-hydroxy-2-methylpropyl)sulfonyl)cyclopropyl)methyl)-1-methyl-7-oxo-4,5,6,7-tetrahydro-1H-pyrazolo[3,4-c]pyridine-3-carboxamide] | 412
Cn1nc(C(=O)NCc2ccc(Cl)cc2)c2c1C(=O)N(CC1(S(N)(=O)=O)CC1)CC2 [Example 121, N-(4-Chlorobenzyl)-1-methyl-7-oxo-6-((1-sulfamoylcyclopropyl)methyl)-4,5,6,7-tetrahydro-1H-pyrazolo[3,4-c]pyridine-3-carboxamide] | 671
CN(C)/C=N/S(=O)(=O)C1(CN2CCc3c(C(=O)NCc4ccc(Cl)cc4)nn(C)c3C2=O)CC1 [Example 122, (E)-N-(4-Chlorobenzyl)-6-((1-(N-((dimethylamino)methylene)sulfamoyl)cyclopropyl)methyl)-1-methyl-7-oxo-4,5,6,7-tetrahydro-1H-pyrazolo[3,4-c]pyridine-3-carboxamide] | 324
Cn1nc(C(=O)NCc2ccc(C#N)cc2)c2c1C(=O)N(CC1(S(=O)(=O)N3CCOCC3)CC1)CC2 [Example 124, N-(4-Cyanobenzyl)-1-methyl-6-((1-(morpholinosulfonyl)cyclopropyl)methyl)-7-oxo-4,5,6,7-tetrahydro-1H-pyrazolo[3,4-c]pyridine-3-carboxamide] | 121
Cn1nc(C(=O)NCc2ccc(C#N)cc2)c2c1C(=O)N(CC1(S(=O)(=O)N3CCC(O)CC3)CC1)CC2 [Example 125, N-(4-Cyanobenzyl)-6-((1-((4-hydroxypiperidin-1-yl)sulfonyl)cyclopropyl)methyl)-1-methyl-7-oxo-4,5,6,7-tetrahydro-1H-pyrazolo[3,4-c]pyridine-3-carboxamide] | 136
Cn1nc(C(=O)NCc2ccc(C#N)cc2)c2c1C(=O)N(CC1(S(=O)(=O)N3CC[C@@H](O)C3)CC1)CC2 [Example 126, (R)-N-(4-Cyanobenzyl)-6-((1-((3-hydroxypyrrolidin-1-yl)sulfonyl)cyclopropyl)methyl)-1-methyl-7-oxo-4,5,6,7-tetrahydro-1H-pyrazolo[3,4-c]pyridine-3-carboxamide] | 84
Cn1nc(C(=O)NCc2ccc(C#N)cc2)c2c1C(=O)N(CC1(S(=O)(=O)N3CC[C@H](O)C3)CC1)CC2 [Example 127, (S)-N-(4-Cyanobenzyl)-6-((1-((3-hydroxypyrrolidin-1-yl)sulfonyl)cyclopropyl)methyl)-1-methyl-7-oxo-4,5,6,7-tetrahydro-1H-pyrazolo[3,4-c]pyridine-3-carboxamide] | 67
Cn1nc(C(=O)NCc2ccc(C#N)cc2)c2c1C(=O)N(CC1(S(=O)(=O)NC3CC3)CC1)CC2 [Example 129, N-(4-cyanobenzyl)-6-((1-(N-cyclopropylsulfamoyl)cyclopropyl)methyl)-1-methyl-7-oxo-4,5,6,7-tetrahydro-1H-pyrazolo[3,4-c]pyridine-3-carboxamide] | 213
Cn1nc(C(=O)NCc2ccc(C#N)cc2)c2c1C(=O)N(CC1(S(=O)(=O)NC3COC3)CC1)CC2 [Example 132, N-(4-Cyanobenzyl)-1-methyl-6-((1-(N-(oxetan-3-yl)sulfamoyl)cyclopropyl)methyl)-7-oxo-4,5,6,7-tetrahydro-1H-pyrazolo[3,4-c]pyridine-3-carboxamide] | 451
Cn1nc(C(=O)NCc2ccc(C#N)cc2)c2c1C(=O)N(CC1(S(=O)(=O)N3CCNCC3)CC1)CC2 [Example 133, N-(4-Cyanobenzyl)-1-methyl-7-oxo-6-((1-(piperazin-1-ylsulfonyl)cyclopropyl)methyl)-4,5,6,7-tetrahydro-1H-pyrazolo[3,4-c]pyridine-3-carboxamide] | 258
Cn1nc(C(=O)NCc2ccc(C#N)cc2)c2c1C(=O)N(CC1(S(=O)(=O)NCCCN)CC1)CC2 [Example 134, 6-((1-(N-(3-Aminopropyl)sulfamoyl)cyclopropyl)methyl)-N-(4-cyanobenzyl)-1-methyl-7-oxo-4,5,6,7-tetrahydro-1H-pyrazolo[3,4-c]pyridine-3-carboxamide] | 282
Cn1nc(C(=O)NCc2ccc(C#N)cc2)c2c1C(=O)N(CC1(S(=O)(=O)NCCN)CC1)CC2 [Example 135, 6-((1-(N-(2-Aminoethyl)sulfamoyl)cyclopropyl)methyl)-N-(4-cyanobenzyl)-1-methyl-7-oxo-4,5,6,7-tetrahydro-1H-pyrazolo[3,4-c]pyridine-3-carboxamide] | 1090
CN1CCN(S(=O)(=O)C2(CN3CCc4c(C(=O)NCc5ccc(C#N)cc5)nn(C)c4C3=O)CC2)CC1 [Example 136, N-(4-Cyanobenzyl)-1-methyl-6-((1-((4-methylpiperazin-1-yl)sulfonyl)cyclopropyl)methyl)-7-oxo-4,5,6,7-tetrahydro-1H-pyrazolo[3,4-c]pyridine-3-carboxamide] | 243
Cn1nc(C(=O)NCc2ccc(C#N)cc2)c2c1C(=O)N(CC1(S(=O)(=O)NC3CCNCC3)CC1)CC2 [Example 137, N-(4-Cyanobenzyl)-1-methyl-7-oxo-6-((1-(N-(piperidin-4-yl)sulfamoyl)cyclopropyl)methyl)-4,5,6,7-tetrahydro-1H-pyrazolo[3,4-c]pyridine-3-carboxamide] | 691
Cn1nc(C(=O)NCc2ccc(C#N)cc2)c2c1C(=O)N(CC1(S(=O)(=O)N3CCC(N)CC3)CC1)CC2 [Example 138, 6-((1-((4-Aminopiperidin-1-yl)sulfonyl)cyclopropyl)methyl)-N-(4-cyanobenzyl)-1-methyl-7-oxo-4,5,6,7-tetrahydro-1H-pyrazolo[3,4-c]pyridine-3-carboxamide] | 326
Cn1nc(C(=O)NCc2ccc(C#N)cc2)c2c1C(=O)N(CC1(S(=O)(=O)N3C[C@@H](N)[C@H](O)C3)CC1)CC2 [Example 139, 6-((1-(((3R,4R)-3-Amino-4-hydroxypyrrolidin-1-yl)sulfonyl)cyclopropyl)methyl)-N-(4-cyanobenzyl)-1-methyl-7-oxo-4,5,6,7-tetrahydro-1H-pyrazolo[3,4-c]pyridine-3-carboxamide] | 143
Cn1nc(C(=O)NCc2ccc(C#N)cc2)c2c1C(=O)N(CC1(S(=O)(=O)N3C[C@H](N)[C@@H](O)C3)CC1)CC2 [Example 140, 6-((1-(((3S,4S)-3-Amino-4-hydroxypyrrolidin-1-yl)sulfonyl)cyclopropyl)methyl)-N-(4-cyanobenzyl)-1-methyl-7-oxo-4,5,6,7-tetrahydro-1H-pyrazolo[3,4-c]pyridine-3-carboxamide] | 147
Cn1nc(C(=O)NCc2ccc(C#N)cc2)c2c1C(=O)N(CC1(S(=O)(=O)N3CC[C@@H](N)C3)CC1)CC2 [Example 141, (R)-6-((1-((3-Aminopyrrolidin-1-yl)sulfonyl)cyclopropyl)methyl)-N-(4-cyanobenzyl)-1-methyl-7-oxo-4,5,6,7-tetrahydro-1H-pyrazolo[3,4-c]pyridine-3-carboxamide] | 192
Cn1nc(C(=O)NCc2ccc(C#N)cc2)c2c1C(=O)N(CC1(S(=O)(=O)N3CC[C@H](N)C3)CC1)CC2 [Example 142, (S)-6-((1-((3-Aminopyrrolidin-1-yl)sulfonyl)cyclopropyl)methyl)-N-(4-cyanobenzyl)-1-methyl-7-oxo-4,5,6,7-tetrahydro-1H-pyrazolo[3,4-c]pyridine-3-carboxamide] | 268
Cn1nc(C(=O)NCc2ccc(Cl)cc2)c2c1C(=O)N(CC1(S(=O)(=O)NCCO)CC1)CC2 [Example 143, N-(4-Chlorobenzyl)-6-((1-(N-(2-hydroxyethyl)sulfamoyl)cyclopropyl)methyl)-1-methyl-7-oxo-4,5,6,7-tetrahydro-1H-pyrazolo[3,4-c]pyridine-3-carboxamide] | 344
CN(CCO)S(=O)(=O)C1(CN2CCc3c(C(=O)NCc4ccc(Cl)cc4)nn(C)c3C2=O)CC1 [Example 144, N-(4-Chlorobenzyl)-6-((1-(N-(2-hydroxyethyl)-N-methylsulfamoyl)cyclopropyl)methyl)-1-methyl-7-oxo-4,5,6,7-tetrahydro-1H-pyrazolo[3,4-c]pyridine-3-carboxamide] | 67
Cn1nc(C(=O)NCc2ccc(C#N)cc2)c2c1C(=O)N(CC1(S(=O)(=O)NCCO)CC1)CC2 [Example 145, N-(4-Cyanobenzyl)-6-((1-(N-(2-hydroxyethyl)sulfamoyl)cyclopropyl)methyl)-1-methyl-7-oxo-4,5,6,7-tetrahydro-1H-pyrazolo[3,4-c]pyridine-3-carboxamide] | 237
